The values that follow come from patent publication US20240400584A1, “COMPOUNDS AND METHODS FOR MODULATING SPLICING” (REMIX THERAPEUTICS INC., priority 2021, published 2024).

For test [1], the system named is MYB. Nature of the test: RT-qPCR splicing assay, MYB AJ/CJ mRNA. Type of test: cell-based. To be noted: Homo sapiens, A673 or K562 cells, 24 hours; for IC50: decrease in canonical junction mRNA; for AC50: increase in alternative junction mRNA. In outline: (§1)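 Following 24 h compound exposure at 37 °C (11 points, 3-fold, highest 10 uM; DMSO ≤0.25%), A673 or K562 lysates underwent RT-qPCR for exon-inclusion (AJ) and canonical (CJ) junctions of HTT and MYB. Relative quantification used housekeeping-gene ΔCt and DMSO-normalized ΔΔCt, converted to percentage response.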

Test [2] deals with HTT. Nature of the test: RT-qPCR splicing assay, HTT AJ/CJ mRNA. Type of test: cell-based, human. To be noted: Homo sapiens, A673 or K562 cells; for IC50: decrease in canonical junction mRNA; for AC50: increase in alternative junction mRNA. In outline:
as §1

In the next test the test system is SMN2. Nature of the test: Gene panel canonical junction qPCR assay, SMN2 CJ mRNA (Table 7). In kind it is cell-based. Particulars: Homo sapiens, read-out: SMN2 CJ mRNA decrease IC50. Put shortly:
(§2)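 A673 or K562 cells were treated with compound; lysates went through cDNA synthesis and RT-qPCR, with a probe or primer spanning the canonical exon–exon junction. ΔCt vs housekeeper (GAPDH, GUSB or PPIA), normalized to DMSO (2^(−ΔΔCt)), converted to percentage response; IC50 from 4-parameter logistic fit of CJ decrease.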

Test [3] relates to HTT. Nature of the test: Gene panel canonical junction qPCR assay, HTT CJ mRNA (Table 7). Type of test: cell-based, human. Particulars: Homo sapiens, read-out: HTT CJ mRNA decrease IC50. Put shortly: as §2
In test [4] the test system is MYB. Nature of the test: Gene panel canonical junction qPCR assay, MYB CJ mRNA (Table 7). Type of test: cell-based. To be noted: Homo sapiens, read-out: MYB CJ mRNA decrease IC50. Put shortly:
as §2

In the next test the test system is Target C. Briefly: Gene panel canonical junction qPCR assay, Target C CJ mRNA (Table 7). In kind it is cell-based, human. Particulars: Homo sapiens, read-out: Target C CJ mRNA decrease IC50. In outline: as §2

With `COc1cc(-c2cc3c(cc2F)-c2ccc(O[C@@H]4C[C@H]5CC[C@@H](C4)N5)nc2OC3)cnn1` [Compound 243], the IC50 with MYB [1] is 0.1 to 1 µM; in the test with HTT [2] (24 h) it was less than 0.1 µM; in the test on SMN2, less than 0.1 µM; in the test on HTT [3], less than 0.1 µM; in the test with MYB [4] it was 0.1 to 1 µM; in the test with Target C, 0.1 to 1 µM. Moreover, the results for the concentration at half-maximal activity (AC50) in the test with MYB [1] and in the test on HTT [2] (24 h) were 0.1 to 1 µM and less than 0.1 µM, respectively.

With `COc1cc(-c2ccc3c(c2)COc2nc(N4CCC(NC5CCC5)C4)ccc2-3)cnn1` (centres unmarked) [Compound 280, N-cyclobutyl-1-[8-(6-methoxypyridazin-4-yl)-6H-isochromeno[3,4-b]pyridin-3-yl]pyrrolidin-3-amine], the IC50 is 1 to 10 µM in the test on MYB [1]; 0.1 to 1 µM in the test on HTT [2] (24 h); 0.1 to 1 µM in the test with SMN2; 0.1 to 1 µM with HTT [3]; 1 to 10 µM with MYB [4]; 0.1 to 1 µM in the test on Target C. Further, the half-maximal activity concentration (AC50) with MYB [1] and with HTT [2] (24 h) was 0.1 to 1 µM throughout.

For `FC1(F)CC2CC(Oc3ccc4c(n3)OCc3cc(-n5nccn5)ccc3-4)CC1N2` (centres unmarked) [Compound 235, 6,6-difluoro-3-{[8-(1,2,3-triazol-2-yl)-6H-isochromeno[3,4-b]pyridin-3-yl]oxy}-8-azabicyclo[3.2.1]octane], the IC50 with MYB [1] was more than 10 µM; in the test on HTT [2] (24 h), more than 10 µM; in the test on SMN2, more than 10 µM; with HTT [3] it was more than 10 µM; with MYB [4], more than 10 µM; in the test with Target C, 1 to 10 µM. Moreover, the AC50 in the test on MYB [1] and with HTT [2] (24 h) was more than 10 µM throughout.

Turning to `COc1cc(-c2ccc3c(c2)COc2nc(N4CCC(C)(NC(C)C)C4)ccc2-3)cnn1` (centres unmarked) [Compound 309], the IC50 in the test on MYB [1] was 0.1 to 1 µM; in the test on HTT [2] (24 h), less than 0.1 µM; with SMN2, less than 0.1 µM; in the test with HTT [3] it was less than 0.1 µM; in the test with MYB [4], 0.1 to 1 µM; in the test with Target C it was 0.1 to 1 µM. In addition, the AC50 with MYB [1] is 0.1 to 1 µM; in the test with HTT [2] (24 h), less than 0.1 µM.

Regarding `c1cnn(-c2ccc3c(c2)COc2nc(N4CCC5(CCNCC5)C4)ccc2-3)c1` [Compound 182], the IC50 in the test with MYB [1], in the test on HTT [2] (24 h), in the test with SMN2, with HTT [3], with MYB [4] and in the test on Target C was more than 10 µM throughout. For the same compound, the AC50 in the test with MYB [1] and in the test with HTT [2] (24 h) was more than 10 µM in each case.

With `CN(c1ccc2c(n1)OCc1cc(-n3nccn3)ccc1-2)C1CC2CC(F)(F)C(C1)N2` (centres unmarked) [Compound 239, 6,6-difluoro-N-methyl-N-[8-(1,2,3-triazol-2-yl)-6H-isochromeno[3,4-b]pyridin-3-yl]-8-azabicyclo[3.2.1]octan-3-amine], the IC50 with MYB [1] is 1 to 10 µM; in the test on HTT [2] (24 h) it was 0.1 to 1 µM; with SMN2, 0.1 to 1 µM; with HTT [3], 0.1 to 1 µM; in the test on MYB [4] it was 1 to 10 µM; in the test with Target C it was 1 to 10 µM. Moreover, the concentration at half-maximal activity (AC50) with MYB [1] and with HTT [2] (24 h) was 1 to 10 µM each time.

On to `CN(c1ccc2c(n1)OCc1cc(-n3cc(N)cn3)ccc1-2)[C@@H]1C[C@H]2CC[C@@H](C1)N2` [Compound 172], for which the IC50 with MYB [1] is 0.1 to 1 µM; in the test with HTT [2] (24 h) it was 0.1 to 1 µM; in the test with SMN2 it was less than 0.1 µM; in the test with HTT [3], 0.1 to 1 µM; in the test on MYB [4], 0.1 to 1 µM; with Target C, 0.1 to 1 µM. For the same compound, the AC50 in the test with MYB [1] and in the test with HTT [2] (24 h) was 0.1 to 1 µM each time.

For the compound `c1cnn(-c2ccc3c(c2)COc2nc(N4CCC5(CCNC5)CC4)ccc2-3)c1` [Compound 184], the IC50 in the test with MYB [1], in the test with HTT [2] (24 h), in the test with SMN2, in the test with HTT [3], in the test with MYB [4] and in the test with Target C was 1 to 10 µM throughout. The AC50 with MYB [1] and in the test on HTT [2] (24 h) was 1 to 10 µM in each case.

For the compound `O=c1cc(-c2ccc3c(c2)COc2nc(OC4CC5CC(F)(F)C(C4)N5)ccc2-3)cc[nH]1` (centres unmarked) [Compound 229], the IC50 with MYB [1], in the test on HTT [2] (24 hours), with SMN2, in the test with HTT [3], in the test on MYB [4] and in the test on Target C was more than 10 µM throughout. The AC50 with MYB [1] and in the test with HTT [2] (24 hours) was more than 10 µM in each case.

With `CCN(c1ccc2c(n1)OCc1cc(-n3cccn3)ccc1-2)C1CCNCC1` [Compound 177], the IC50 in the test on MYB [1], in the test on HTT [2] (24 h), in the test on SMN2, in the test on HTT [3], in the test on MYB [4] and with Target C was more than 10 µM throughout. Moreover, the AC50 in the test with MYB [1] and in the test on HTT [2] (24 h) was more than 10 µM throughout.

Turning to `CN1CCC2(CC1)CCN2c1ccc2c(n1)OCc1cc(-c3cn[nH]c3)ccc1-2` [Compound 227, 7-methyl-1-[8-(1H-pyrazol-4-yl)-6H-isochromeno[3,4-b]pyridin-3-yl]-1,7-diazaspiro[3.5]nonane], the IC50 in the test with MYB [1], in the test with HTT [2] (24 h), with SMN2, in the test with HTT [3], with MYB [4] and in the test on Target C was more than 10 µM each time. Also, the AC50 in the test with MYB [1] and in the test with HTT [2] (24 h) was more than 10 µM throughout.

In the case of `c1cnn(-c2ccc3c(c2)COc2nc(OC4CCNCC4)ccc2-3)c1` [Compound 187], the 50% inhibitory concentration (IC50) in the test on MYB [1] is more than 10 µM; with HTT [2] (24 h), 1 to 10 µM; in the test on SMN2, 1 to 10 µM; in the test on HTT [3], 1 to 10 µM; in the test with MYB [4], more than 10 µM; with Target C it was more than 10 µM. The AC50 in the test with MYB [1] and with HTT [2] (24 h) was more than 10 µM throughout.

For `COc1cc(-c2ccc3c(c2)COc2nc(N4CCN[C@H](C(C)(C)C)C4)ccc2-3)cnn1` [Compound 317, 5-{3-[(3R)-3-tert-butylpiperazin-1-yl]-6H-isochromeno [3,4-b]pyridin-8-yl}-3-methoxypyridazine], the IC50 in the test on MYB [1] was 0.1 to 1 µM; in the test on HTT [2] (24 h) it was 0.1 to 1 µM; in the test with SMN2, less than 0.1 µM; in the test with HTT [3] it was 0.1 to 1 µM; in the test with MYB [4] it was 0.1 to 1 µM; in the test with Target C, 0.1 to 1 µM. Besides, the AC50 in the test with MYB [1] and with HTT [2] (24 h) was 0.1 to 1 µM in each case.

As for `CN1C[C@@H]2[C@H](C1)[C@H]2N(C)c1ccc2c(n1)OCc1cc(-n3cccn3)ccc1-2` [Compound 196], the IC50 in the test on MYB [1], in the test with HTT [2] (24 h), with SMN2, in the test with HTT [3], in the test with MYB [4] and in the test with Target C was more than 10 µM each time. In addition, the AC50 in the test with MYB [1] and with HTT [2] (24 h) was more than 10 µM each time.

As for `COc1cc(-c2ccc3c(c2)COc2nc(N4CCNCC4)ccc2-3)cnn1` [Compound 282, 3-methoxy-5-[3-(piperazin-1-yl)-6H-isochromeno[3,4-b]pyridin-8-yl] pyridazine], the IC50 with MYB [1], in the test with HTT [2] (24 h), with SMN2, with HTT [3], with MYB [4] and in the test with Target C was 0.1 to 1 µM each time. The AC50 in the test on MYB [1] and in the test with HTT [2] (24 h) was 0.1 to 1 µM each time.

On to `COc1cc(-c2ccc3c(c2)COc2nc(N4CCNC(C(C)(C)C)C4)ccc2-3)cnn1` (centres unmarked) [Compound 304], for which the IC50 in the test with MYB [1] is 0.1 to 1 µM; with HTT [2] (24 h) it was less than 0.1 µM; in the test with SMN2 it was less than 0.1 µM; in the test with HTT [3] it was less than 0.1 µM; with MYB [4], 0.1 to 1 µM; in the test with Target C it was 0.1 to 1 µM. The AC50 in the test with MYB [1] is 0.1 to 1 µM; in the test with HTT [2] (24 h), less than 0.1 µM.

For the compound `[2H]C([2H])([2H])N(c1ccc2c(n1)OCc1cc(-n3cccn3)ccc1-2)C1CCNCC1` [Compound 176], the IC50 is more than 10 µM in the test on MYB [1]; 1 to 10 µM with HTT [2] (24 h); 1 to 10 µM in the test on SMN2; 1 to 10 µM in the test on HTT [3]; more than 10 µM in the test with MYB [4]; more than 10 µM in the test on Target C. The figures for the AC50 in the test with MYB [1] and in the test with HTT [2] (24 h) were more than 10 µM and 1 to 10 µM, respectively.

`COc1cc(-c2ccc3c(c2)COc2nc(N4CC[C@H](NC(C)(C)C)C4)ccc2-3)cnn1` [Compound 269, (3S)—N-tert-butyl-1-[8-(6-methoxypyridazin-4-yl)-6H-isochromeno[3,4-b]pyridin-3-yl]pyrrolidin-3-amine]: the IC50 with MYB [1] was 0.1 to 1 µM; in the test with HTT [2] (24 h) it was less than 0.1 µM; in the test on SMN2 it was less than 0.1 µM; in the test on HTT [3], less than 0.1 µM; in the test on MYB [4], 0.1 to 1 µM; in the test on Target C, 0.1 to 1 µM. Also, the AC50 was 1 to 10 µM in the test on MYB [1] and 0.1 to 1 µM in the test with HTT [2] (24 h).

Turning to `c1cnn(-c2ccc3c(c2)COc2nc(N4CCC(NC5CC5)C4)ccc2-3)n1` (centres unmarked) [Compound 249, N-cyclopropyl-1-[8-(1,2,3-triazol-2-yl)-6H-isochromeno[3,4-b]pyridin-3-yl]pyrrolidin-3-amine], the IC50 in the test on MYB [1] is more than 10 µM; with HTT [2] (24 h), 1 to 10 µM; in the test on SMN2 it was 0.1 to 1 µM; in the test with HTT [3], 1 to 10 µM; in the test with MYB [4], more than 10 µM; with Target C, more than 10 µM. Further, the AC50 in the test on MYB [1] was more than 10 µM; with HTT [2] (24 h), 1 to 10 µM.
